*1 amine or outer side, *2 acyl side, *3 side chain or, on linkers, in order; H or OH if unused. Where a SMILES comes first, the peptide text is derived from it. Side-chain parts run from the residue outwards. [ ]: non-standard residue; d: D form. The star is where a group is joined. C18 diacid = O=C(O)CCCCCCCCCCCCCCCCC(=O)*; C16 diacid = O=C(O)CCCCCCCCCCCCCCC(=O)*; γGlu = O=C(O)[C@H](CCC(=O)[*:2])N[*:1]; pGlu = O=C1CC[C@@H](C(=O)O)N1; AEEA = NCCOCCOCC(=O)O
Tests used:
Format in all cases: cell-based
human GIP receptor [1] = target: T1, human GIP receptor (Homo sapiens, UniProt P48546); assay: cAMP accumulation, agonism (DiscoveRx HitHunter cAMP XS assay); parameters: host or cells: COS-7 (transient, calcium phosphate; pCMV-Script vector); settings: for cAMP agonism, Emax: Table 1B, DiscoveRx, COS-7 cells; for Emax: COS-7, read-out: cAMP agonism, Emax
T1 sequence (P48546 22-466): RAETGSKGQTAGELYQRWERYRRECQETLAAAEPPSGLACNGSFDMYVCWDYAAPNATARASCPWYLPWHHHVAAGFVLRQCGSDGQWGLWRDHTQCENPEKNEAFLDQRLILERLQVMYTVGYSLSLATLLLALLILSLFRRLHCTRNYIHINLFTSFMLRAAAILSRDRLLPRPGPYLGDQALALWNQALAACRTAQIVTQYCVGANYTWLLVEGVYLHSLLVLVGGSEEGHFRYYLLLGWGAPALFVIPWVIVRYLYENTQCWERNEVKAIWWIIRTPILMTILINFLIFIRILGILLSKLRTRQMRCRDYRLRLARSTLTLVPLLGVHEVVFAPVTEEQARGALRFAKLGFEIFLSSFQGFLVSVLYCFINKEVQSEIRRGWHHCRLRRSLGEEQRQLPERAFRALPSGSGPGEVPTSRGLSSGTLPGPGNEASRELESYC
Summary of the method: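 cAMP accumulation measured by HitHunter cAMP XS in COS-7 cells transiently expressing human GIP receptor, after 30 min in HBS with 1 mM IBMX at 37 °C. Antagonists preincubated 10 min before GIP giving 50-80% of maximum, then 20 min more; agonist mode used 30 min ligand exposure.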

human GIP receptor [2] = target: T1, human GIP receptor; assay: cAMP accumulation, antagonism (DiscoveRx HitHunter cAMP XS assay); parameters: host or cells: COS-7 (transient, calcium phosphate; pCMV-Script vector); settings: Table 1B, DiscoveRx; for cAMP antagonism, % inhib: COS-7 cells, % inhibition of Emax; for IC50: cAMP antagonism, nM (IC50), transiently transfected COS-7 cells
Summary of the method: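 Transiently transfected COS-7 cells expressing human GIP receptor, pretreated with 1 mM IBMX in HBS 30 min at 37 °C. Agonism: ligand 30 min at 37 °C; antagonism: 10 min antagonist preincubation, then GIP at 50-80% maximal response for 20 min. cAMP measured by HitHunter cAMP XS.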

human GIP receptor [3] = target: T1, human GIP receptor; assay: cAMP agonism (CisBio cAMP Dynamic 2 HTRF assay); settings: for Emax: HEK293, read-out: cAMP agonism, % Efficacy, Table 1C, HEK-293 cells
Procedure: To test for agonistic properties at the GIP receptor, compounds were diluted and added to cells as described above and incubated for 30 min at 37° C. The resulting increase in intracellular cAMP was determined using the CisBio cAMP Dynamic 2 HTRF Assay Kit as described above.

human GIP receptor [4] = target: T1, human GIP receptor; assay: cAMP antagonism (CisBio cAMP Dynamic 2 HTRF assay); parameters: pCMV-Script vector; settings: Table 1C, CisBio, HEK-293 cells; for IC50: cAMP antagonism, nM (IC50), agonist GIP1-42 at EC50
Summary of the method: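 Four-parameter fits of cAMP dose-response gave pIC50. cAMP fall was quantified by HTRF competition, ratio 665/620 nm after 60 min at room temperature, against a cAMP standard curve.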

Compound	cAMP agonism, Emax (human GIP receptor [1])	cAMP antagonism, % inhib (human GIP receptor [2]) [%]	Emax (human GIP receptor [3]) [%]	cAMP antagonism, % inhib (human GIP receptor [4]) [%]	IC50 (human GIP receptor [4]) [nM]	Emax (human GIP receptor [1]) [%]	IC50 (human GIP receptor [2]) [nM]	cAMP agonism, % Efficacy (human GIP receptor [3]; Table 1C, HEK-293 cells) [%]
CC[C@H](C)[C@H](NC(=O)[C@H](CO)NC(=O)[C@H](Cc1ccc(O)cc1)NC(=O)[C@H](CC(=O)O)NC(=O)[C@H](CO)NC(=O)[C@@H](NC(=O)[C@H](Cc1ccccc1)NC(=O)[C@@H](NC(=O)CNC(=O)[C@@H](N)CO)[C@@H](C)O)[C@@H](C)CC)C(=O)N[C@@H](C)C(=O)N[C@@H](CCSC)C(=O)N[C@@H](CC(=O)O)C(=O)N[C@@H](CCCNC(=N)N)C(=O)N[C@H](C(=O)N[C@@H](CCCCNC(=O)COCCOCCNC(=O)CC[C@H](NC(=O)CCCCCCCCCCCCCCC(=O)O)C(=O)O)C(=O)N[C@@H](CCC(N)=O)C(=O)N[C@@H](CCC(N)=O)C(=O)N[C@@H](CC(=O)O)C(=O)N[C@@H](Cc1ccccc1)C(=O)N[C@H](C(=O)N[C@@H](CC(N)=O)C(=O)N[C@@H](Cc1c[nH]c2ccccc12)C(=O)N[C@@H](CC(C)C)C(=O)N[C@@H](CC(C)C)C(=O)N[C@@H](C)C(=O)N[C@@H](CCC(N)=O)C(=O)N[C@@H](CCCNC(=N)N)C(N)=O)C(C)C)[C@@H](C)CC [AT510] (HELM PEPTIDE1{S.G.T.F.I.S.D.Y.S.I.A.M.D.R.I.K.Q.Q.D.F.V.N.W.L.L.A.Q.R.[am]}|PEPTIDE2{[O=C(O)CCCCCCCCCCCCCCC(=O)[*:2]].[gGlu].[O=C(COCCOCCN[*:1])[*:2]]}$PEPTIDE1,PEPTIDE2,16:R3-3:R2$$$V2.0; N-terminus assumed)	No Agonism	100	2	87	58.4			
CC[C@H](C)[C@H](NC(=O)[C@H](CO)NC(=O)[C@H](Cc1ccc(O)cc1)NC(=O)[C@H](CC(=O)O)NC(=O)[C@H](CO)NC(=O)[C@@H](NC(=O)[C@H](Cc1ccccc1)NC(=O)[C@@H](NC(=O)CNC(=O)[C@@H](N)CO)[C@@H](C)O)[C@@H](C)CC)C(=O)N[C@@H](C)C(=O)N[C@@H](CCSC)C(=O)N[C@@H](CC(=O)O)C(=O)N[C@@H](CCCNC(=N)N)C(=O)N[C@H](C(=O)N[C@@H](CCCCNC(=O)CCCCCCCCCCCCCCC(=O)O)C(=O)N[C@@H](CCC(N)=O)C(=O)N[C@@H](CCC(N)=O)C(=O)N[C@@H](CC(=O)O)C(=O)N[C@@H](Cc1ccccc1)C(=O)N[C@H](C(=O)N[C@@H](CC(N)=O)C(=O)N[C@@H](Cc1c[nH]c2ccccc12)C(=O)N[C@@H](CC(C)C)C(=O)N[C@@H](CC(C)C)C(=O)N[C@@H](C)C(=O)N[C@@H](CCC(N)=O)C(=O)N[C@@H](CCCNC(=N)N)C(N)=O)C(C)C)[C@@H](C)CC [AT498] (H-SGTFISDYSIAMDRIK(C16 diacid)QQDFVNWLLAQR-NH2; N-terminus assumed)		95		85	13.2	6	21	5
CC[C@H](C)[C@H](NC(=O)[C@H](CO)NC(=O)[C@H](Cc1ccc(O)cc1)NC(=O)[C@H](CC(=O)O)NC(=O)[C@H](CO)NC(=O)[C@@H](NC(=O)[C@H](Cc1ccccc1)NC(=O)[C@@H](NC(=O)CNC(=O)[C@@H]1CCC(=O)N1)[C@@H](C)O)[C@@H](C)CC)C(=O)N[C@@H](C)C(=O)N[C@@H](CCSC)C(=O)N[C@@H](CC(=O)O)C(=O)N[C@@H](CCCNC(=N)N)C(=O)N[C@H](C(=O)N[C@@H](CCCCNC(=O)CCCCCCCCCCCCCCCCC(=O)O)C(=O)N[C@@H](CCC(N)=O)C(=O)N[C@@H](CCC(N)=O)C(=O)N[C@@H](CC(=O)O)C(=O)N[C@@H](Cc1ccccc1)C(=O)N[C@H](C(=O)N[C@@H](CC(N)=O)C(=O)N[C@@H](Cc1c[nH]c2ccccc12)C(=O)N[C@@H](CC(C)C)C(=O)N[C@@H](CC(C)C)C(=O)N[C@@H](C)C(=O)N[C@@H](CCC(N)=O)C(=O)N[C@@H](CCCNC(=N)N)C(N)=O)C(C)C)[C@@H](C)CC [AT391] ([pGlu]GTFISDYSIAMDRIK(C18 diacid)QQDFVNWLLAQR-NH2)	No Agonism	100	0	95			10	
CC[C@H](C)[C@H](NC(=O)[C@H](CO)NC(=O)[C@H](Cc1ccc(O)cc1)NC(=O)[C@H](CC(=O)O)NC(=O)[C@H](CO)NC(=O)[C@@H](NC(=O)[C@H](Cc1ccccc1)NC(=O)[C@@H](NC(=O)CNC(=O)[C@@H]1CCCN1)[C@@H](C)O)[C@@H](C)CC)C(=O)N[C@@H](C)C(=O)N[C@@H](CCSC)C(=O)N[C@@H](CC(=O)O)C(=O)N[C@@H](CCCNC(=N)N)C(=O)N[C@H](C(=O)N[C@@H](CCCCNC(=O)COCCOCCNC(=O)COCCOCCNC(=O)CC[C@H](NC(=O)CCCCCCCCCCCCCCC(=O)O)C(=O)O)C(=O)N[C@@H](CCC(N)=O)C(=O)N[C@@H](CCC(N)=O)C(=O)N[C@@H](CC(=O)O)C(=O)N[C@@H](Cc1ccccc1)C(=O)N[C@H](C(=O)N[C@@H](CC(N)=O)C(=O)N[C@@H](Cc1c[nH]c2ccccc12)C(=O)N[C@@H](CC(C)C)C(=O)N[C@@H](CC(C)C)C(=O)N[C@@H](C)C(=O)N[C@@H](CCC(N)=O)C(=O)N[C@@H](CCCNC(=N)N)C(=O)O)C(C)C)[C@@H](C)CC [AT279] (H-PGTFISDYSIAMDRIK([AEEA-AEEA-γGlu-C16 diacid])QQDFVNWLLAQR-OH; N-terminus assumed)			14	81		17	19	
CC[C@H](C)[C@H](NC(=O)[C@H](CO)NC(=O)[C@H](Cc1ccc(O)cc1)NC(=O)[C@H](CC(=O)O)NC(=O)[C@H](CO)NC(=O)[C@@H](NC(=O)[C@H](Cc1ccccc1)NC(=O)[C@@H](NC(=O)CNC(=O)[C@@H](N)CCC(=O)O)[C@@H](C)O)[C@@H](C)CC)C(=O)N[C@@H](C)C(=O)N[C@@H](CCSC)C(=O)N[C@@H](CC(=O)O)C(=O)N[C@@H](CCCNC(=N)N)C(=O)N[C@H](C(=O)N[C@@H](CCCCNC(=O)COCCOCCNC(=O)COCCOCCNC(=O)COCCOCCNC(=O)CC[C@H](NC(=O)CCCCCCCCCCCCCCCCC(=O)O)C(=O)O)C(=O)N[C@@H](CCC(N)=O)C(=O)N[C@@H](CCC(N)=O)C(=O)N[C@@H](CC(=O)O)C(=O)N[C@@H](Cc1ccccc1)C(=O)N[C@H](C(=O)N[C@@H](CC(N)=O)C(=O)N[C@@H](Cc1c[nH]c2ccccc12)C(=O)N[C@@H](CC(C)C)C(=O)N[C@@H](CC(C)C)C(=O)N[C@@H](C)C(=O)N[C@@H](CCC(N)=O)C(=O)N[C@@H](CCCNC(=N)N)C(N)=O)C(C)C)[C@@H](C)CC [AT378] (H-EGTFISDYSIAMDRIK([AEEA-AEEA-AEEA-γGlu-C18 diacid])QQDFVNWLLAQR-NH2; N-terminus assumed)	No Agonism	92	0	90			16	
CC[C@H](C)[C@H](NC(=O)[C@H](CO)NC(=O)[C@H](Cc1ccc(O)cc1)NC(=O)[C@H](CC(=O)O)NC(=O)[C@H](CO)NC(=O)[C@@H](NC(=O)[C@H](Cc1ccccc1)NC(=O)[C@@H](NC(=O)CNC(=O)[C@@H]1CCCN1)[C@@H](C)O)[C@@H](C)CC)C(=O)N[C@@H](C)C(=O)N[C@@H](CCSC)C(=O)N[C@@H](CC(=O)O)C(=O)N[C@@H](CCCNC(=N)N)C(=O)N[C@H](C(=O)N[C@@H](CCCCNC(=O)CC[C@H](NC(=O)CCCCCCCCCCCCCCC(=O)O)C(=O)O)C(=O)N[C@@H](CCC(N)=O)C(=O)N[C@@H](CCC(N)=O)C(=O)N[C@@H](CC(=O)O)C(=O)N[C@@H](Cc1ccccc1)C(=O)N[C@H](C(=O)N[C@@H](CC(N)=O)C(=O)N[C@@H](Cc1c[nH]c2ccccc12)C(=O)N[C@@H](CC(C)C)C(=O)N[C@@H](CC(C)C)C(=O)N[C@@H](C)C(=O)N[C@@H](CCC(N)=O)C(=O)N[C@@H](CCCNC(=N)N)C(N)=O)C(C)C)[C@@H](C)CC [AT506] (HELM PEPTIDE1{P.G.T.F.I.S.D.Y.S.I.A.M.D.R.I.K.Q.Q.D.F.V.N.W.L.L.A.Q.R.[am]}|PEPTIDE2{[O=C(O)CCCCCCCCCCCCCCC(=O)[*:2]].[gGlu]}$PEPTIDE1,PEPTIDE2,16:R3-2:R2$$$V2.0; N-terminus assumed)	No Agonism	90	5	78			91	

Source: patent publication US12187773B2, “Modified GIP peptide analogues” (Antag Therapeutics ApS, priority 2018, dated 2025)
